Effect on depression and effect on forgetfulness data for two compounds are collected here from US20020169209A1, “Potentiation of therapeutic effects of fatty acids” (priority 2001, published 2002).

The subject of one assay is depression. The assay can be described thus: Case history: person seriously depressed for over 10 years. The assay is classed as in vivo, human. The settings on record: one patient; ibuprofen alone. The method, then:
Because there is evidence of elevated formation of prostaglandins in depression, they were given a combined COX-1 and COX-2 inhibitor, ibuprofen. […] The ibuprofen was stopped and they were treated with ethyl-eicosapentaenoate at a dose of 1 g/day. This seemed to have a modest effect but they remained far from well.

For assay [1], the system named is forgetfulness, possibly developing Alzheimer's disease (AD). As to the kind of experiment: Case history: forgetful person, possible Alzheimer's disease. It counts as in vivo, human. The settings on record: one patient; indomethacin alone over six months or so. The procedure:
A person had become very forgetful and their family was concerned that they might be developing Alzheimer's disease (AD). Because there is evidence that the NSAID indomethacin may be able to slow down the progression of AD, their child, who was a doctor, prescribed indomethacin. […] Because of animal work on the beneficial effects of AA in the aging rat brain, 800 mg of AA in triglyceride form was added to the treatment regime.

`CC(C)Cc1ccc(C(C)C(=O)O)cc1` (centres unmarked) [ibuprofen]: in the assay with depression, the effect on depression result is “marginal effect but this was not apparent to observers”.
In the case of `COc1ccc2c(c1)c(CC(=O)O)c(C)n2C(=O)c1ccc(Cl)cc1` [indomethacin], the effect on forgetfulness entry in assay [1] is listed as “may have had a slight effect but there was no dramatic change”.
